Reference: ChEMBL document CHEMBL1139035, “Evaluation of the antioxidant properties of diarylamines in the benzo[b]thiophene series by free radical scavenging activity and reducing power” (Bioorg Med Chem Lett, 2006)

Key:
Format in all cases: functional
[1] = tested on: Radical scavenging activity; assay: DPPH radical scavenging activity at 0.0156 g/L
[2] = tested on: Radical scavenging activity; assay: DPPH radical scavenging activity at 0.0312 g/L
[3] = tested on: Radical scavenging activity; assay: DPPH radical scavenging activity at 0.0625 g/L
[4] = tested on: Radical scavenging activity; assay: DPPH radical scavenging activity at 0.250 g/L
[5] = tested on: Radical scavenging activity; assay: DPPH radical scavenging activity at 0.125 g/L

Cc1cc2c(C)c(C)sc2cc1Nc1ccc(F)cc1
Activity [1]: 0% | Activity [2]: 0% | Activity [3]: 0% | Activity [4]: 2.8% | Activity [5]: 0.4%

CCOC(=O)c1sc2ccccc2c1Nc1ccc(OC)cc1
Activity [1]: 0% | Activity [2]: 0% | Activity [3]: 0.4% | Activity [4]: 0.78% | Activity [5]: 0.74%

COc1ccc(Nc2cc3sc(C)c(C)c3cc2C)cc1OC
Activity [1]: 49% | Activity [2]: 65.3% | Activity [3]: 74.6% | Activity [4]: 75.4% | Activity [5]: 75%

Fc1ccc(Nc2csc3ccccc23)cc1
Activity [1]: 26.8% | Activity [2]: 44.7% | Activity [3]: 67.7% | Activity [4]: 85% | Activity [5]: 83.4%

Cc1cc2c(C)c(C)sc2cc1Nc1ccccc1F
Activity [1]: 0% | Activity [2]: 0% | Activity [3]: 0.52% | Activity [4]: 1.21% | Activity [5]: 0.54%

COc1ccc(Nc2cc3sc(C)c(C)c3cc2C)cc1
Activity [1]: 38.3% | Activity [2]: 68.5% | Activity [3]: 76.6% | Activity [4]: 77% | Activity [5]: 76.8%

CCOC(=O)c1sc2ccccc2c1Nc1ccc(OC)cc1OC
Activity [1]: 20.8% | Activity [2]: 34.8% | Activity [3]: 51.1% | Activity [4]: 74.8% | Activity [5]: 64.7%

COc1ccc(O)c(C(C)(C)C)c1.COc1ccc(O)cc1C(C)(C)C
Activity [1]: 41.2% | Activity [2]: 63% | Activity [3]: 75.7% | Activity [4]: 84% | Activity [5]: 83%

CCOC(=O)c1sc2ccccc2c1Nc1ccc(F)cc1
Activity [1]: 0% | Activity [2]: 0.54% | Activity [3]: 0.72% | Activity [4]: 0.9% | Activity [5]: 0.86%

COc1ccc(Nc2c(C(=O)O)sc3ccccc23)c(OC)c1
Activity [1]: 8.9% | Activity [2]: 30.7% | Activity [3]: 44.7% | Activity [4]: 84% | Activity [5]: 63%

Cc1cc(C(C)(C)C)c(O)c(C(C)(C)C)c1
Activity [1]: 28% | Activity [2]: 38.3% | Activity [3]: 60% | Activity [4]: 83% | Activity [5]: 82.3%
